IC50 data for five molecules are collected here from BindingDB's records for doi:10.1021/acs.jmedchem.8b01201 (Kezar Life Sciences, 2018).

Assay [1] can be described thus: Inhibition of 20S proteosome beta 2 in human MOLT4 cells by ELISA. For orientation: ELISA stands for enzyme-linked immunosorbent assay.
Assay [2] can be described thus: Inhibition of 20S proteosome beta 1 in human MOLT4 cells by ELISA.
Assay [3] deals with T1, Proteasome subunit beta type-1 (Mus musculus, UniProt O09061).
T1 sequence (O09061 whole entry): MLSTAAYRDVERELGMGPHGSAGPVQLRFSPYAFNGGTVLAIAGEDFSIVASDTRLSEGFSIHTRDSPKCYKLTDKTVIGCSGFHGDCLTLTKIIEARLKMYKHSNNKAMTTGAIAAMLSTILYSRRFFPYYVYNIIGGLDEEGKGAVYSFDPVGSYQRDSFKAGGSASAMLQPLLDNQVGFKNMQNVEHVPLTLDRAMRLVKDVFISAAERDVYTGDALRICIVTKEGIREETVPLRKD
As to the kind of experiment: Inhibition of 20S proteosome beta 1 in mouse A20 cells by ELISA.

For assay [4], the target named is T2, Proteasome subunit beta type-1 (Homo sapiens, UniProt P20618).
T2 sequence (P20618 whole entry): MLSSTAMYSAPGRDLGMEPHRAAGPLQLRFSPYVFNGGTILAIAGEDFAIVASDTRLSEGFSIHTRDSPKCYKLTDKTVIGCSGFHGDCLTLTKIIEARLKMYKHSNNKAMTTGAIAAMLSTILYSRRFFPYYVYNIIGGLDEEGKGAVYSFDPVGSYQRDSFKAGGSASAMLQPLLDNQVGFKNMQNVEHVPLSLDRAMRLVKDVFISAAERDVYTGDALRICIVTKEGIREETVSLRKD
As to the kind of experiment: Inhibition of 20S proteosome beta 1 in human MOLT4 cells by ELISA.

In assay [5] the target is Proteasome subunit beta type-2 (Homo sapiens, UniProt P49721). As to the kind of experiment: Inhibition of 20S proteosome beta 2 in human MOLT4 cells by ELISA.
Proteasome subunit beta type-2, sequence (P49721 whole entry): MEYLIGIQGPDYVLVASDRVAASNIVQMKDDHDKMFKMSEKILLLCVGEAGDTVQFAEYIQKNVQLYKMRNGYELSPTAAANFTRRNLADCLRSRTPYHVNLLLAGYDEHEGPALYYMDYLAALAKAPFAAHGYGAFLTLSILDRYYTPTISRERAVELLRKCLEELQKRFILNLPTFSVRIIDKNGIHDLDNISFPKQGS
Assay [6] can be described thus: Inhibition of 20S proteosome beta 1 in mouse A20 cells by ELISA.

What is called IC50 is the concentration at which inhibition is half-maximal. Read a low IC50 as greater potency. With `COc1ccc(C[C@H](NC(=O)[C@@H](C)NC(=O)[C@H]2CC[C@H](O)CC2)C(=O)N[C@@H](CC2=CCCC2)C(=O)[C@@]2(C)CO2)cc1`, the IC50 in assay [1] and in assay [2] was > 25 µM each time.
As for `CC(C)C[C@H](NC(=O)CN1CCCCCC1)C(=O)N[C@@H](Cc1ccccc1)C(=O)N[C@@H](Cc1ccccc1)C(=O)[C@@]1(C)CO1`, the IC50 in assay [3] and in assay [2] was > 250 µM in each case.
As for `COc1ccc(C[C@H](NC(=O)[C@@H](C)NC(=O)[C@H]2CC[C@H](O)CC2)C(=O)N[C@@H](Cc2ccccc2)C(=O)[C@@]2(C)CO2)cc1`, the 50% inhibitory concentration (IC50) was > 25 µM in assay [4] and > 25000 nM in assay [5].
With `Cc1ccc(CC[C@H](NC(=O)[C@H](Cc2ccccc2)NC(=O)[C@H](CC(C)C)NC(=O)CN2CCCCCC2)C(=O)[C@@]2(C)CO2)cc1`, the 50% inhibitory concentration (IC50) in assay [5] is 413 nM; in assay [3], > 25 µM; in assay [2] it was > 25 µM.
As for `COc1ccc([C@@H](O)[C@H](NC(=O)[C@H](C)NC(=O)CN2CCOCC2)C(=O)N[C@@H](CC2=CCCC2)C(=O)[C@@]2(C)CO2)cc1` [Kzr-616], the figures for the IC50 in assay [6] and in assay [2] were > 25 µM and > 10.6 µM, respectively.
